Assay results taken from patent US9556183B2, “Substituted pyrazolylpyrazole derivative and use of same as herbicide” (KYOYU AGRI CO., LTD., priority 2013, dated 2017).

Assays:
Assay type in all cases: in vivo
Echinochloa crus-galli = experiment: Paddy herbicidal activity test; details: irrigated paddy pot, treated at 3.5 leaf stage of Echinochloa crus-galli, 30 days
Procedure: (§1) Rice paddy soil was filled into a 1/10000 are pot followed by the addition of suitable amounts of water and chemical fertilizer, kneading, seeding with Echinochloa crus-galli, Monochoria vaginalis and Scirpus juncoides and maintaining in an irrigated state at a water depth of 3 cm. Wettable powder of Target Compound (I) shown in Table 1 prepared in compliance with the preparation examples were diluted with a suitable amount of water, rice plants in the 2.0 leaf stage were transplanted during 3.5 leaf stage of Echinochloa crus-galli, and treated by dropping in chemical in the prescribed amount per are using a pipette. After treating for 30 days in a glass greenhouse at an average atmospheric temperature of 30° C., the herbicidal efficacy thereof was investigated. Evaluation of herbicidal efficacy was carried out by comparing growth inhibition rate (%) with an untreated group, while evaluation of phytotoxicity was carried out by comparing growth inhibition rate (%) with the state of a complete eradication group, and were evaluated at 11 levels indicated below. [table]

Monochoria vaginalis = experiment: Paddy herbicidal activity test; details: irrigated paddy pot, 30 days
Procedure: as §1

Scirpus juncoides = experiment: Paddy herbicidal activity test; details: irrigated paddy pot, 30 days
Procedure: as §1

Rice plants = experiment: Paddy herbicidal activity test, phytotoxicity to transplanted rice; details: rice transplanted at 2.0 leaf stage, 30 days
Procedure: as §1

| Structure (SMILES) | herbicidal efficacy (growth inhibition rate level) Echinochloa crus-galli (Echinochloa crus-galli; 1g a.i./10a) | herbicidal efficacy (growth inhibition rate level) Echinochloa crus-galli (Echinochloa crus-galli; 5g a.i./10a) | herbicidal efficacy (growth inhibition rate level) Monochoria vaginalis (Monochoria vaginalis; 1g a.i./10a) | herbicidal efficacy (growth inhibition rate level) Monochoria vaginalis (Monochoria vaginalis; 5g a.i./10a) | herbicidal efficacy (growth inhibition rate level) Scirpus juncoides (Scirpus juncoides; 1g a.i./10a) | herbicidal efficacy (growth inhibition rate level) Scirpus juncoides (Scirpus juncoides; 5g a.i./10a) | phytotoxicity (growth inhibition rate level) Rice plants (Rice plants; 1g a.i./10a) | phytotoxicity (growth inhibition rate level) Rice plants (Rice plants; 5g a.i./10a) |
| --- | --- | --- | --- | --- | --- | --- | --- | --- |
| N#Cc1cnn(-c2nn3c(c2Cl)CCCC3)c1N(CC1CC1)C(=O)C(F)(F)C(F)(F)F [Compound 3] | 8 (8: 80% to less than 90%) | 8 (8: 80% to less than 90%) | 7 (7: 70% to less than 80%) | 7 (7: 70% to less than 80%) | 7 (7: 70% to less than 80%) | 8 (8: 80% to less than 90%) | 0 (0 (exponent): 0% to less than 10% (growth inhibition rate)) | 0 (0 (exponent): 0% to less than 10% (growth inhibition rate)) |
| CC1(CNc2c(C#N)cnn2-c2nn3c(c2Cl)CCCC3)CC1 [Compound 4] | 9 (9: 90% to less than 100%) | 10 (10: 100%) | 9 (9: 90% to less than 100%) | 9 (9: 90% to less than 100%) | 8 (8: 80% to less than 90%) | 8 (8: 80% to less than 90%) | 0 (0 (exponent): 0% to less than 10% (growth inhibition rate)) | 1 (1: 10% to less than 20%) |
| N#Cc1cnn(-c2nn3c(c2Cl)CCC3)c1NCC1CC1 [Compound 5] | 9 (9: 90% to less than 100%) | 10 (10: 100%) | 9 (9: 90% to less than 100%) | 9 (9: 90% to less than 100%) | 8 (8: 80% to less than 90%) | 9 (9: 90% to less than 100%) | 0 (0 (exponent): 0% to less than 10% (growth inhibition rate)) | 1 (1: 10% to less than 20%) |
| N#Cc1cnn(-c2nn3c(c2Cl)CCC3)c1N(CC1CC1)C(=O)C(F)(F)F [Compound 6] | 9 (9: 90% to less than 100%) | 9 (9: 90% to less than 100%) | 8 (8: 80% to less than 90%) | 9 (9: 90% to less than 100%) | 7 (7: 70% to less than 80%) | 8 (8: 80% to less than 90%) | 0 (0 (exponent): 0% to less than 10% (growth inhibition rate)) | 0 (0 (exponent): 0% to less than 10% (growth inhibition rate)) |
| CC(Nc1c(C#N)cnn1-c1nn2c(c1Cl)CCCC2)C1(C)CC1 (stereo not shown) [Compound 8] | 9 (9: 90% to less than 100%) | 9 (9: 90% to less than 100%) | 7 (7: 70% to less than 80%) | 7 (7: 70% to less than 80%) | 7 (7: 70% to less than 80%) | 8 (8: 80% to less than 90%) | 0 (0 (exponent): 0% to less than 10% (growth inhibition rate)) | 0 (0 (exponent): 0% to less than 10% (growth inhibition rate)) |
| CC1CC1CN(C(=O)C(F)(F)F)c1c(C#N)cnn1-c1nn2c(c1Cl)CCCC2 (stereo not shown) [Compound 13] | 9 (9: 90% to less than 100%) | 9 (9: 90% to less than 100%) | 8 (8: 80% to less than 90%) | 8 (8: 80% to less than 90%) | 8 (8: 80% to less than 90%) | 8 (8: 80% to less than 90%) | 0 (0 (exponent): 0% to less than 10% (growth inhibition rate)) | 1 (1: 10% to less than 20%) |
| CC(C1CC1)N(C(=O)C(F)(F)F)c1c(C#N)cnn1-c1nn2c(c1Cl)CCCC2 (stereo not shown) [Compound 14] | 8 (8: 80% to less than 90%) | 9 (9: 90% to less than 100%) | 7 (7: 70% to less than 80%) | 7 (7: 70% to less than 80%) | 7 (7: 70% to less than 80%) | 8 (8: 80% to less than 90%) | 0 (0 (exponent): 0% to less than 10% (growth inhibition rate)) | 0 (0 (exponent): 0% to less than 10% (growth inhibition rate)) |
| O=[N+]([O-])c1cnn(-c2nn3c(c2Cl)CCCC3)c1NCC1CC1 [Compound 114] | 9 (9: 90% to less than 100%) | 9 (9: 90% to less than 100%) | 7 (7: 70% to less than 80%) | 8 (8: 80% to less than 90%) | 8 (8: 80% to less than 90%) | 9 (9: 90% to less than 100%) | 0 (0 (exponent): 0% to less than 10% (growth inhibition rate)) | 0 (0 (exponent): 0% to less than 10% (growth inhibition rate)) |
| O=C(N(CC1CC1)c1c([N+](=O)[O-])cnn1-c1nn2c(c1Cl)CCCC2)C(F)(F)F [Compound 115] | 8 (8: 80% to less than 90%) | 9 (9: 90% to less than 100%) | 8 (8: 80% to less than 90%) | 8 (8: 80% to less than 90%) | 9 (9: 90% to less than 100%) | 8 (8: 80% to less than 90%) | 0 (0 (exponent): 0% to less than 10% (growth inhibition rate)) | 1 (1: 10% to less than 20%) |
| O=[N+]([O-])c1cnn(-c2nn3c(c2Br)CCCC3)c1NCC1CC1 [Compound 158] | 8 (8: 80% to less than 90%) | 9 (9: 90% to less than 100%) | 7 (7: 70% to less than 80%) | 7 (7: 70% to less than 80%) | 8 (8: 80% to less than 90%) | 9 (9: 90% to less than 100%) | 0 (0 (exponent): 0% to less than 10% (growth inhibition rate)) | 0 (0 (exponent): 0% to less than 10% (growth inhibition rate)) |
| O=C(N(CC1CC1)c1c([N+](=O)[O-])cnn1-c1nn2c(c1Br)CCCC2)C(F)(F)F [Compound 159] | 8 (8: 80% to less than 90%) | 9 (9: 90% to less than 100%) | 7 (7: 70% to less than 80%) | 8 (8: 80% to less than 90%) | 7 (7: 70% to less than 80%) | 8 (8: 80% to less than 90%) | 0 (0 (exponent): 0% to less than 10% (growth inhibition rate)) | 0 (0 (exponent): 0% to less than 10% (growth inhibition rate)) |
